Values of other authors as cited in article PMC139967 (BMC Biochemistry, 2002).

System: calmodulin

Q: For KAHKAATKIQASFRGHITRKKLKC [NM], which “effect of high ionic strength on calmodulin binding” value is on record?
A: reduced by high ionic strength
